Source: US20210238173A1, “MITOGEN-ACTIVATED PROTEIN KINASE KINASE 7 INHIBITORS” (Yeda Research and Development Co. Ltd., priority 2018, published 2021)
Read-outs that look alike come from different tables or passages of the source.

Legend:
[1] = Metabolic stability in human liver microsomes; assay type: in vitro ADME; conditions: for half-life: human, liver microsomes
Source text: (§1) A reference compound, REF1250, was used in this study: […]

MKK4 = target: T1, MKK4 (Homo sapiens, UniProt P45985); assay: In vitro activity assay for MKK4 (Nanosyn); assay type: biochemical
T1 construct: purchased Nanosyn (contract assay)
T1 sequence (P45985 1-399): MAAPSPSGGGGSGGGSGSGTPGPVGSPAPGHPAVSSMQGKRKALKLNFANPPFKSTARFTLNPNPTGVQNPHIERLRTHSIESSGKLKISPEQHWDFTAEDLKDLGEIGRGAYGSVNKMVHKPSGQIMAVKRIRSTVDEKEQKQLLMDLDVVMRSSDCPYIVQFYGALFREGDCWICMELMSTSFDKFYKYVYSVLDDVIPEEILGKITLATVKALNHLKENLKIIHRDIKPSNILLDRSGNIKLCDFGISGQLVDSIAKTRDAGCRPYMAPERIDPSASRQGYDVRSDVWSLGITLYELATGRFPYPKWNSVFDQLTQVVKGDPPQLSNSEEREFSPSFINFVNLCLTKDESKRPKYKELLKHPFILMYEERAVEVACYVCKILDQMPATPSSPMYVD
Protocol: (§2) In Vitro Activity Assays for MKK7 or MKK4 (Carried by Nanosyn):
(§3) Exemplary test compounds, according to some embodiments of the present invention, were diluted in DMSO to a final concentration that ranged from 10 μM to 0.0565 nM, while final concentration of DMSO in all assays was kept at 1%. Reference compound, Staurosporine, was tested in a similar manner. […] After incubation, activity of now activated JNK1 was tested in the presence of 30 μM ATP ATP for 17 h (MKK7) or 4 h (MKK4).

pJNK in 3T3 WT cells = assay: In-cell western (ICW) pJNK inhibition in 3T3 WT; assay type: cell-based; conditions: 3T3 WT, sorbitol stimulation
Protocol: HEK293, Beas2B and 3T3 cells were plated 24 hours before procedure on 384 well clear bottom black flat plates (Corning) pre-coated with Fibronectin (Sigma) diluted in PBS to a concentration of 5 μg/ml 45 minutes prior to cells introduction. Cells were plated using Multidrop™ Combi reagent dispenser (Thermo Fisher Scientific). Compound, reagents and antibody dispensing as well as washes were performed with a CyBio liquid handler (Analytik). Cells were pre-incubated with a small molecule or up to 1% DMSO for 2 h before fixation. HEK293, 3T3 or Beas2B cells were treated with 0.6M/0.2M/0.2M D-Sorbitol/PBS (Sigma) for 20/40/40 min. respectively, before fixation. Media was removed and wells were immediately fixed with 150 μl per well of 3.7% formaldehyde/PBS fixing solution for 20 min. Formaldehyde was then aspired and cells were permeabilized with 150 μl of 0.5% Triton x-100/PBS solution for 10 min. After aspiration cells were washed with ice-cold methanol and stored at −20° C., for 10 min. Methanol was aspired and cells were blocked with 150 μl blocking buffer (LICOR) for 90 min. Primary antibody Phospho-SAPK/JNK T183/Y185 (CST; 9251S) was diluted 1:1000 in blocking buffer and was applied 50 μl per well, except control wells to which only blocking buffer was applied, O.N. (16 h) at 4° C. with mild shaking. Primary antibody was aspired, wells were washed with 150 μl 0.1% Tween20/PBS (Sigma) washing solution three times for 7 min. IRDye® 800CW Goat anti-Rabbit IgG Secondary antibody (LICOR) was then diluted 1:1200 in blocking buffer with 50 μl applied per well on control wells only (no CellTag control), then CellTag700 (1:2000) was added to the solution and 50 μl were added to all experiment wells, for 1 h at room temperature. Wells were aspired and washed again with 150 μl 0.1% Tween20/PBS (Sigma) washing solution three times for 7 min. plate was dried and scanned with Odyssey CLx imaging system at 700 nm and 800 nm (Licor). Wells signals were analyzed with Odyssey software. The signal was normalized by the CellTag700 signal.
To rapidly assess the cellular activity (EC50) with full dose response curves of the MKK7 covalent inhibitors, according to some embodiments of the present invention, an in-cell western assay was adapted to a 384 well plate format over traditional western blot, and monitored phospho-JNK (pJNK) levels in response to osmotic shock. We first characterized the dynamics of pJNK in response to sorbitol. Sufficient dynamic range for pJNK is achieved at 20 minutes in HEK293 cells and at 40 minutes in 3T3 and Beas2B cells. The compound's activity was assessed by pre-treating cells with either compound or DMSO for 2 hours, followed by Sorbitol stimulation. The response of pJNK, and its substrates, pc-Jun and pATF2, was measured, as well as pP38, which is a substrate of MKK4 but not MKK7, and pERK in HEK293 cells, and the results are presented in Table 5 below.
Wildtype 3T3 cells, 3T3 MKK7 double knock-out (MKK7^−/−) cells and MKK4/7 double knockouts (MKK4/7^−/−) were used to validate on target activity of the MKK7 covalent inhibitors presented herein.

MKK7 = target: T2, MKK7 (Homo sapiens, UniProt O14733); assay: In vitro kinase activity assay for MKK7 (Nanosyn); assay type: biochemical
T2 construct: purchased Nanosyn (contract assay)
T2 sequence (O14733 1-419): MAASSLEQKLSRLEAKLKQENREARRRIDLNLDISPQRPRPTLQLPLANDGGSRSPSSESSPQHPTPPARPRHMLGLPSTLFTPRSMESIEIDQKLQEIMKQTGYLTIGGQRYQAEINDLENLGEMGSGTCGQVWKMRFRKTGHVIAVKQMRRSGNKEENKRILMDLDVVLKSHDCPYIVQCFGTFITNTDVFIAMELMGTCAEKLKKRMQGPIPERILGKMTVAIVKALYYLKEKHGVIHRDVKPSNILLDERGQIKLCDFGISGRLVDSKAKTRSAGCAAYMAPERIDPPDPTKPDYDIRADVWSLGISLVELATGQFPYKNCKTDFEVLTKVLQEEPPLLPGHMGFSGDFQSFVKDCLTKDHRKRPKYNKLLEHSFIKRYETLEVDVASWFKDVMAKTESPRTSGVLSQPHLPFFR
Protocol: Based on visual inspection of the top 500 predictions, 10 compounds were selected for synthesis and testing (see, Table 1). The “Docking rank” is given in its respective run, whereas four virtual libraries of acrylamides were docked separately, based on the amine precursor for the acrylamide (primary or secondary aliphatic amines, primary or secondary aromatic amines). In vitro kinase activity assay was carried out by Nanosyn, as described below.
as §2, §3

[2] = Metabolic stability in dog liver microsomes; assay type: in vitro ADME; conditions: for half-life: dog, liver microsomes
Source text: as §1

[3] = Metabolic stability in mouse liver microsomes; assay type: in vitro ADME; conditions: for half-life: mouse, liver microsomes
Source text: as §1

| % remaining @ 40 min [1] | half-life [1] | IC50 (MKK4) | potency towards MKK7 compared with Aurora kinase (MKK7; MKK7 nanomolar, Aurora kinase micromolar) | IC50 (MKK7; read-out: MKK7 IC50) | IC50 (MKK7; read-out: MKK7 IC50 in vitro) | % remaining @ 40 min [2] | half-life [2] | % remaining @ 40 min [3] | half-life [3] | SMILES | IC50 (pJNK in 3T3 WT cells) | EC50 (pJNK in 3T3 WT cells; ICW, 2 h pre-incubation) |
| --- | --- | --- | --- | --- | --- | --- | --- | --- | --- | --- | --- | --- |
| 0% | < 5 min | 4.15 µM | at least two orders of magnitude | 0.009 µM | 0.006 µM | 0% | < 5 min | 0% | < 5 min | C=CC(=O)Nc1cccc(-c2n[nH]c3ccccc23)c1 [GO32] | 5.15 µM |  |
| 0% | < 5 min | 7.81 µM |  |  | 0.005 µM | 0% | < 5 min | 0% | < 5 min | C=CC(=O)Nc1cccc(-c2n[nH]c3cc(C)ccc23)c1 [GO80] | 4.05 µM |  |
| 0% | < 5 min | 4.13 µM |  |  | 0.011 µM | 0% | < 5 min | 0% | < 5 min | C=CC(=O)Nc1cccc(-c2n[nH]c3c2CCCC3)c1 [GO4] | 18.2 µM | > 10 µM |
